Test results published in patent EP3749673B1, “CRYSTALLINE FORM OF BICTEGRAVIR SODIUM” (Sandoz AG, priority 2018, dated 2019).

Tests used:
Type in all cases: physicochemical
[1] = Initial dissolution behaviour (dissolution rate), about 100 mg suspended in 10 ml solvent, filtrate analysed by HPLC; conditions: 24°C, stirring time 1 minute, approx. 100mg in 10ml
Method: The initial dissolution behavior of bictegravir sodium form II was compared with bictegravir sodium form I. Approximately 100mg Bictegravir-Na (Form I or Form II) were suspended at 24°C in 10ml solvent. Two different solvents were used for the study: 0,1M aqueous HCl solution and a phosphate buffer system (pH6,8; prepared according to "Küster Thiel - Rechentafeln dür die chemische Analytik").
After a stirring time of 1 minute a sample was taken and filtered throw a syringe filter. The received clear filtrate was analyzed by HPLC to determine the Bictegravir content. The HPLC-column was a YMC-Pack Pro C18 RS (150mm x 4.6mm) operated at 0.8 ml/min. Detection was at a wavelength of 254 nm. Mobile phases were sulfamic acid in water and acetonitrile, respectively, and were used as components of the gradient.

[2] = Differential scanning calorimetry, resistance to temperature stress (solid-solid phase transition); conditions: DSC, heating rate 10 K/min, 25 to 400 °C
Method: Bictegravir sodium Form II was investigated by DSC, which was performed on a Mettler Polymer DSC R instrument. The sample (3.77 mg) was heated in a 40 microliter aluminium pan with a pierced aluminium lid from 25 to 400 °C at a rate of 10 K/min. Nitrogen (purge rate 50 mL/min) was used as purge gas.

[3] = Storage stability (polymorphic stability determined by XRPD); conditions: stored at 40°C/75% rh
Method: Thus bictegravir sodium form II is a storage stable (polymorphically stable as determined by XRPD for at least 1 month when stored at 40°C/75% rh) fast-dissolving crystalline form of bictegravir sodium with unexpected advantages over bictegravir sodium form I.

amount dissolved after 1 minute ([1]; 0.1M HCl) [mg/mL] | amount dissolved after 1 minute ([1]; pH6.8 phosphate buffer system) [mg/mL] | temperature at which decomposition starts ([2]; Form I formed in situ from Form II) | polymorphically stable as determined by XRPD (storage time) [3] | onset temperature of exothermic peak (solid-solid phase transition from Form II to Form I) [2] | peak temperature of exothermic peak (solid-solid phase transition from Form II to Form I) [2] | Structure (SMILES)
0.085 | 0.059 | about 370 °C | – | – | – | O=C(NCc1c(F)cc(F)cc1F)c1cn2c(c(O)c1=O)C(=O)N1C3CCC(C3)OC1C2 (centres unmarked) [bictegravir sodium form I, bictegravir sodium]
0.220 | 0.186 | – | at least 1 month | about 313 °C | about 320 °C | O=C(NCc1c(F)cc(F)cc1F)c1cn2c(c(O)c1=O)C(=O)N1C3CCC(C3)OC1C2 (centres unmarked) [bictegravir sodium form II, bictegravir sodium]
